Measured values reported in the supplement of paper PMC10307832.

Experiments:
Test in all cases: relative viability (nuclei count vs DMSO), 5 days (fraction); higher = more cells survive
[1] = compound: Cc1nc(C(=O)NCC(=O)O)c(O)c2ccc(Oc3ccccc3)cc12 [FG-4592] + C[C@@H](Oc1cc(-c2cnn(C3CCNCC3)c2)cnc1N)c1c(Cl)ccc(F)c1Cl [Crizotinib] (partner 1 µM)
Method in brief: (§1)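 Lung cancer cell lines in 1536-well plates were dosed by pin tool the day after seeding, either with one drug alone or with a fixed anchor-drug dose plus five library-drug doses (not always all listed) in √10 steps. After 5 days, cells were fixed and their nuclei stained in one step (final 0.05% Triton X-100, 1% formaldehyde, 1 ug/ml Hoechst), then counted on 4× images. Relative viability is the nuclei count in treated wells divided by that in vehicle wells. Values are medians of duplicate plates.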

[2] = compound: Cc1nc(C(=O)NCC(=O)O)c(O)c2ccc(Oc3ccccc3)cc12 [FG-4592] + O=C(c1cc(Cc2n[nH]c(=O)c3ccccc23)ccc1F)N1CCN(C(=O)C2CC2)CC1 [Olaparib] (partner 8 µM)
Method in brief: as §1

[3] = compound: Cc1nc(C(=O)NCC(=O)O)c(O)c2ccc(Oc3ccccc3)cc12 [FG-4592] + Nc1nc2[nH]cc(CCc3ccc(C(=O)N[C@@H](CCC(=O)O)C(=O)O)cc3)c2c(=O)[nH]1 [Pemetrexed] (partner 0.2 µM)
Method in brief: as §1

[4] = compound: CC1=CC(=C(N1C2=CC=C(C=C2)Cl)C)C(=O)CN3CCCCC3 [IU1-47] + C[C@]1(O)C[C@@H](c2nc(-c3ccc4ccc(-c5ccccc5)nc4c3)c3c(N)nccn32)C1 [Linsitinib] (partner 1 µM)
Method in brief: as §1

| Cell Line | relative viability ([1]; first compound 0.08 µM) | relative viability ([1]; first compound 0.253 µM) | relative viability ([1]; first compound 0.8 µM) | relative viability ([1]; first compound 2.53 µM) | relative viability ([1]; first compound 8 µM) | relative viability ([2]; first compound 0.08 µM) | relative viability ([2]; first compound 0.253 µM) | relative viability ([2]; first compound 0.8 µM) | relative viability ([2]; first compound 2.53 µM) | relative viability ([2]; first compound 8 µM) | relative viability ([3]; first compound 0.08 µM) | relative viability ([3]; first compound 0.253 µM) | relative viability ([3]; first compound 0.8 µM) | relative viability ([3]; first compound 2.53 µM) | relative viability ([3]; first compound 8 µM) | relative viability ([4]; first compound 0.08 µM) | relative viability ([4]; first compound 0.253 µM) | relative viability ([4]; first compound 0.8 µM) | relative viability ([4]; first compound 2.53 µM) | relative viability ([4]; first compound 8 µM) |
| --- | --- | --- | --- | --- | --- | --- | --- | --- | --- | --- | --- | --- | --- | --- | --- | --- | --- | --- | --- | --- |
| NCI-H1975 | 0.921 | 0.892 | 1.11 | 0.991 | 0.897 | 0.786 | 0.747 | 0.883 | 0.849 | 0.721 | 0.27 | 0.293 | 0.292 | 0.268 | 0.307 | 1.06 | 1.17 | 1.11 | 0.98 | 0.752 |
| CAL-12T | 0.664 | 0.62 | 0.753 | 0.677 | 0.585 | 0.63 | 0.67 | 0.727 | 0.764 | 0.687 | 1.21 | 1.3 | 1.3 | 0.974 | 1.04 | 0.82 | 0.828 | 0.805 | 0.887 | 0.832 |
| HCC-44 | 0.754 | 0.798 | 0.878 | 0.805 | 0.82 | 0.971 | 0.921 | 1.03 | 1 | 1.01 | 0.615 | 0.652 | 0.705 | 0.688 | 0.725 | 0.668 | 0.662 | 0.649 | 0.664 | 0.572 |
| EKVX | 1.08 | 0.816 | 1.23 | 0.977 | 1.02 | 0.748 | 0.844 | 0.721 | 0.901 | 0.905 | 0.346 | 0.36 | 0.376 | 0.377 | 0.515 | 1.19 | 1.18 | 0.943 | 1.1 | 0.861 |
| NCI-H1651 | 0.89 | 0.799 | 0.829 | 0.863 | 0.862 | 0.182 | 0.175 | 0.196 | 0.17 | 0.176 | 0.591 | 0.57 | 0.583 | 0.588 | 0.508 | 1.22 | 1.14 | 1 |  | 0.771 |
| NCI-H1944 | 1.05 | 1.1 | 1.13 | 1.17 | 1.05 | 0.437 | 0.392 | 0.443 | 0.376 | 0.419 | 0.608 | 0.703 | 0.567 | 0.602 | 0.606 | 1.23 | 1.2 | 1.13 |  | 1.1 |
| NCI-H1703 | 0.591 | 0.572 | 0.702 | 0.44 | 0.733 | 0.428 | 0.337 | 0.336 | 0.341 | 0.423 |  |  |  |  |  | 0.516 | 0.707 | 0.416 | 0.671 | 0.886 |
| Calu-6 | 0.753 | 0.811 | 0.855 | 0.832 | 0.707 | 0.543 | 0.575 | 0.653 | 0.56 | 0.648 |  |  |  |  |  | 1.09 | 0.918 | 1.02 | 0.986 | 0.918 |
| EBC-1 | 0.189 | 0.186 | 0.178 | 0.19 | 0.222 | 0.83 | 0.663 | 0.718 | 0.659 | 0.662 |  |  |  |  |  | 0.664 | 0.888 | 0.925 | 0.964 | 0.881 |
| SW 1573 | 0.664 | 0.7 | 0.71 | 1 | 0.632 | 0.426 | 0.632 | 0.597 | 0.612 | 0.483 | 0.753 | 0.638 | 0.805 | 0.809 | 0.535 | 0.942 | 0.674 | 0.694 | 0.746 | 0.843 |
| A-427 | 0.801 | 0.899 | 0.923 | 0.933 | 1.01 | 0.687 | 0.731 | 0.718 | 0.689 | 0.705 | 0.874 | 0.96 | 0.895 | 0.986 | 0.902 | 1.13 | 1.11 | 1.19 |  | 1.21 |
| NCI-H2347 | 0.668 |  | 0.58 | 0.724 | 0.874 | 0.622 | 0.485 | 0.543 | 0.596 | 0.607 | 0.411 | 0.417 | 0.439 | 0.425 | 0.478 | 1.06 | 0.997 | 0.973 | 0.946 | 0.954 |
| NCI-H1355 | 1.05 | 1.02 |  | 1.07 | 0.944 | 0.803 | 0.66 |  | 0.759 | 0.719 | 1.07 | 0.942 |  | 1.03 | 1.05 | 0.873 | 0.844 | 0.933 | 0.74 | 0.686 |
| NCI-H358 | 0.531 | 0.602 | 0.703 | 0.704 | 0.594 | 0.55 | 0.552 | 0.662 | 0.579 | 0.695 | 0.169 | 0.165 | 0.164 | 0.176 | 0.179 | 0.737 | 0.791 | 0.75 |  | 0.703 |
| PC-3 [JPC-3] | 1 | 0.905 | 1.12 | 0.98 | 0.988 | 1.1 | 0.975 |  | 1.1 | 1.12 | 1.09 | 1.02 |  | 1.19 | 1.05 | 0.99 | 0.927 | 0.978 |  | 1.04 |
